Test results reported in patent publication US5744453A, “Polyamine conjugates for treatment of infection” (priority 1996, dated 1998).
≈ marks a conversion by molar mass, not a printed value. Structures can show the parent of a compound that is named as a salt. Where two headings read alike, the source gives them in different places.

Assays:
Format in all cases: cell-based
[1] = tested on: Escherichia coli strain 25922; assay: Determination of MIC against bacteria (Table 1), E. coli 25922; conditions: read-out: minimum inhibitory concentration (MIC), E. coli 25922
Method: (§1) Antibiotic indicator strains Escherichia coli strain 25922, Enterococcus faecalis 29212, Pseudomonas aeruginosa 27853, and Staphylococcus aureus 29213 are obtained from the American Type Tissue Culture Collection (ATCC) in Rockville, Md. The cystic fibrosis isolate, Pseudomonas aeruginosa 39324, is also obtained from ATCC. Bacteria are routinely cultivated in cation-supplemented Mueller-Hinton broth (CAMHB) or agar at 37° C.
(§2) The minimum inhibitory concentration (MIC) of glycosylated and non-glycosylated steroidal polyamines for antibiotic indicator strains is determined by dissolving the test compounds in deionized water to a final concentration of 1 mg per mL. […] These solutions are sterilized by filtration through 0.22 micron syringe filters.
(§3) Stock solutions of individual compounds are serially diluted (two-fold) in sterile CAMHB in 96-well tissue culture dishes (Falcon) and inoculated with antibiotic indicator strains that are prepared as described below.
(§4) Antibiotic indicator strains are grown in 5 mL of CAMHB for 3-4 h at 37° C. with shaking (200 rpm) on a New Brunswick rotary shaker. Bacteria are adjusted to a turbidity that matched a 0.5 McFarland standard (ca. 10^8 CFU per mL) in sterile 0.85% saline. These bacterial suspensions are diluted 1:20 in sterile 0.85% saline and 10 μL (ca. […]) of each suspension is used to inoculate individual wells of a 96 well plate that contained different concentrations of the test compounds. Following inoculation, the plates are sealed with plastic tape, incubated for 24 h at 37° C. and visually inspected for bacterial growth. CAMHB inoculated with each of the antibiotic test strains and uninoculated CAMBH plus each of the test compounds served as positive and negative controls.

[2] = tested on: Pseudomonas aeruginosa 27853; assay: Determination of MIC against bacteria (Table 1), P. aeruginosa 27853; conditions: read-out: minimum inhibitory concentration (MIC), P. aeruginosa 27853
Method: as §1, §2, §3, §4

[3] = tested on: Enterococcus faecalis 29212; assay: Determination of MIC against bacteria (Table 1), E. faecalis 29212; conditions: read-out: minimum inhibitory concentration (MIC), E. faecalis 29212
Method: as §1, §2, §3, §4

[4] = tested on: Staphylococcus aureus 29213; assay: Determination of MIC against bacteria (Table 1), S. aureus 29213; conditions: read-out: minimum inhibitory concentration (MIC), S. aureus 29213
Method: as §1, §2, §3, §4

[5] = tested on: Pseudomonas aeruginosa 39324; assay: Determination of MIC against bacteria (Table 1), P. aeruginosa 39324 (cystic fibrosis isolate); conditions: read-out: minimum inhibitory concentration (MIC), P. aeruginosa 39324
Method: as §1, §2, §3, §4

[6] = Pseudomonas aeruginosa, 27853, 24 h
[7] = Enterococcus faecalis, 29212, 24 h
[8] = Staphylococcus aureus, 29213, 24 h
[9] = Pseudomonas aeruginosa, 39324, 24 h
[10] = Escherichia coli, 25922, CAMHB, 24 h at 37° C., tested from 1.56 to 200 μg per mL
[11] = Pseudomonas aeruginosa, 27853, CAMHB, 24 h at 37° C., tested from 1.56 to 200 μg per mL
[12] = Enterococcus faecalis, 29212, CAMHB, 24 h at 37° C., tested from 1.56 to 200 μg per mL
[13] = Staphylococcus aureus, 29213, CAMHB, 24 h at 37° C., tested from 1.56 to 200 μg per mL
[14] = Pseudomonas aeruginosa, 39324, CAMHB, 24 h at 37° C., tested from 1.56 to 200 μg per mL

| Compound | MIC ([1]; Escherichia coli, 25922, 24 h) | MIC [2, 6] | MIC [3, 7] | MIC [4, 8] | MIC [5, 9] | MIC [1, 10] | MIC [2, 11] | MIC [3, 12] | MIC [4, 13] | MIC [5, 14] |
| --- | --- | --- | --- | --- | --- | --- | --- | --- | --- | --- |
| C[C@H](CCC(=O)NCCCNCCCCNCCCN)[C@H]1CC[C@H]2[C@@H]3CC[C@@H]4C[C@H](O)CC[C@]4(C)[C@H]3C[C@H](O)[C@]12C [Compound A, 3α,12α-dihydroxy-7-deoxy-5β-cholan-24-oic acid, N-(4,9-diaza-12-aminododecyl)amide] | 12.5 µg/mL (≈ 21.7 µM) | 3.12 µg/mL (≈ 5.41 µM) | 12.5 µg/mL (≈ 21.7 µM) | 6.25 µg/mL (≈ 10.8 µM) | 25 µg/mL (≈ 43.3 µM) | – | – | – | – | – |
| C[C@H](CCC(=O)NCCCNCCCCNCCCN)[C@H]1CC[C@H]2[C@@H]3[C@H](O)C[C@@H]4C[C@H](O)CC[C@]4(C)[C@H]3C[C@H](O)[C@]12C [Compound B, 3α,7α,12α-trihydroxy-5β-cholan-24-oic acid, N-(4,9-diaza-12-aminododecyl)amide] | 200 µg/mL (≈ 337 µM) | 100 to 200 µg/mL (≈ 169 to 337 µM) | 200 µg/mL (≈ 337 µM) | 50 µg/mL (≈ 84.3 µM) | 100 µg/mL (≈ 169 µM) | – | – | – | – | – |
| C[C@H](CCC(=O)NCCCNCCCCNCCCN)[C@H]1CC[C@H]2[C@@H]3[C@H](O[C@H]4O[C@H](CO)[C@@H](O)[C@H](O)[C@H]4O)C[C@@H]4C[C@H](O)CC[C@]4(C)[C@H]3C[C@H](O[C@H]3O[C@H](CO)[C@@H](O)[C@H](O)[C@H]3O)[C@]12C [Compound C, 3α-hydroxy-7α,12α-di(1'α-glucosyl)-5β-cholan-24-oic acid, N-(4,9-diaza-12-aminododecyl)amide] | 200 µg/mL (≈ 218 µM) | 200 µg/mL (≈ 218 µM) | > 200 µg/mL | 200 µg/mL (≈ 218 µM) | – | – | – | – | – | – |
| C[C@H](CCC(=O)NCCCNCCCCNCCCN)[C@H]1CC[C@H]2[C@@H]3CC[C@@H]4C[C@H](O)CC[C@]4(C)[C@H]3C[C@H](O[C@H]3O[C@H](CO)[C@@H](O)[C@H](O)[C@H]3O)[C@]12C [Compound D, 3α-hydroxy-7-deoxy-12α-(1'α-glucosyl)-5β-cholan-24-oic acid, N-(4,9-diaza-12-aminododecyl)amide] | 100 µg/mL (≈ 135 µM) | 100 to 200 µg/mL (≈ 135 to 271 µM) | 200 µg/mL (≈ 271 µM) | 50 to 100 µg/mL (≈ 67.7 to 135 µM) | – | – | – | – | – | – |
| C[C@H](CCC(=O)NCCCNCCCCNCCCN)[C@H]1CC[C@H]2[C@@H]3[C@H](O[C@H]4O[C@H](CO)[C@@H](O)[C@H](O)[C@H]4O)C[C@@H]4C[C@H](O)CC[C@]4(C)[C@H]3CC[C@]12C [Compound E, 3α-hydroxy-12-deoxy-7α-(1'α-glucosyl)-5β-cholan-24-oic acid, N-(4,9-diaza-12-aminododecyl)amide] | 12.5 µg/mL (≈ 16.9 µM) | 12.5 µg/mL (≈ 16.9 µM) | 25 µg/mL (≈ 33.8 µM) | 25 µg/mL (≈ 33.8 µM) | 12.5 µg/mL (≈ 16.9 µM) | – | – | – | – | – |
| C[C@H](CCC(=O)NCCNCCNCCNCCN)[C@H]1CC[C@H]2[C@@H]3CC[C@@H]4C[C@H](O)CC[C@]4(C)[C@H]3C[C@H](O)[C@]12C [Compound F, 3α,12α-dihydroxy-7-deoxy-5β-cholan-24-oic acid, N-(3,6,9-triaza-11-aminoundecyl)amide] | – | – | – | – | – | 100 µg/mL (≈ 177 µM) | 100 µg/mL (≈ 177 µM) | 100 µg/mL (≈ 177 µM) | 25 µg/mL (≈ 44.3 µM) | 100 µg/mL (≈ 177 µM) |
| C[C@H](CCC(=O)NCCNCCNCCNCCNCCN)[C@H]1CC[C@H]2[C@@H]3CC[C@@H]4C[C@H](O)CC[C@]4(C)[C@H]3C[C@H](O)[C@]12C [Compound G, 3α,12α-dihydroxy-7-deoxy-5β-cholan-24-oic acid, N-(3,6,9,12-tetraaza-14-aminotetradecyl)amide] | – | – | – | – | – | 100 µg/mL (≈ 165 µM) | 50 µg/mL (≈ 82.4 µM) | 100 µg/mL (≈ 165 µM) | 25 µg/mL (≈ 41.2 µM) | 50 to 100 µg/mL (≈ 82.4 to 165 µM) |
| C[C@H](CCC(=O)NCCNCCNCCNCCN)[C@H]1CC[C@H]2[C@@H]3[C@H](O)C[C@@H]4C[C@H](O)CC[C@]4(C)[C@H]3CC[C@]12C [Compound I, 3α,7α-dihydroxy-12-deoxy-5β-cholan-24-oic acid, N-(3,6,9-triaza-11-aminoundecyl)amide] | – | – | – | – | – | 25 µg/mL (≈ 44.3 µM) | 50 µg/mL (≈ 88.7 µM) | 25 µg/mL (≈ 44.3 µM) | 12.5 µg/mL (≈ 22.2 µM) | 50 µg/mL (≈ 88.7 µM) |
| C[C@H](CCC(=O)NCCNCCNCCNCCN)[C@H]1CC[C@H]2[C@@H]3[C@H](O)C[C@@H]4C[C@H](O)CC[C@]4(C)[C@H]3C[C@H](O)[C@]12C [Compound J, 3α,7α,12α-trihydroxy-5β-cholan-24-oic acid, N-(3,6,9-triaza-11-aminoundecyl)amide] | – | – | – | – | – | 75 µg/mL (≈ 129 µM) | 75 µg/mL (≈ 129 µM) | 18.7 µg/mL (≈ 32.2 µM) | 37.5 µg/mL (≈ 64.7 µM) | 37.5 µg/mL (≈ 64.7 µM) |
| C[C@H](CCC(=O)NCCNCCNCCNCCNCCN)[C@H]1CC[C@H]2[C@@H]3[C@H](O)C[C@@H]4C[C@H](O)CC[C@]4(C)[C@H]3C[C@H](O)[C@]12C [Compound K, 3α,7α,12α-trihydroxy-12-deoxy-5β-cholan-24-oic acid, N-(3,6,9,12-tetraaza-14-aminotetradecyl)amide] | – | – | – | – | – | 75 µg/mL (≈ 120 µM) | 75 µg/mL (≈ 120 µM) | 15.7 µg/mL (≈ 25.2 µM) | 37.5 µg/mL (≈ 60.2 µM) | 75 µg/mL (≈ 120 µM) |
| C[C@H](CCC(=O)NCCNCCNCCNCCNCCN)[C@H]1CC[C@H]2[C@@H]3[C@H](O[C@H]4O[C@H](CO)[C@@H](O)[C@H](O)[C@H]4O)C[C@@H]4C[C@H](O)CC[C@]4(C)[C@H]3C[C@H](O[C@H]3O[C@H](CO)[C@@H](O)[C@H](O)[C@H]3O)[C@]12C [Compound L, 3α-hydroxy-7α,12α-di(1'α-glucosyl)-5β-cholan-24-oic acid, N-(3,6,9,12-tetraaza-14-aminotetradecyl)amide] | – | – | – | – | – | > 200 µg/mL | > 200 µg/mL | > 200 µg/mL | > 200 µg/mL | > 150 µg/mL |
| C[C@H](CCC(=O)NCCNCCNCCNCCN)[C@H]1CC[C@H]2[C@@H]3[C@H](O[C@H]4O[C@H](CO)[C@@H](O)[C@H](O)[C@H]4O)C[C@@H]4C[C@H](O)CC[C@]4(C)[C@H]3C[C@H](O[C@H]3O[C@H](CO)[C@@H](O)[C@H](O)[C@H]3O)[C@]12C [Compound M, 3α-hydroxy-7α,12α-di(1'α-glucosyl)-5β-cholan-24-oic acid, N-(3,6,9-triaza-11-aminoundecyl)amide] | – | – | – | – | – | > 200 µg/mL | > 200 µg/mL | > 200 µg/mL | > 200 µg/mL | > 150 µg/mL |
| C[C@H](CCC(=O)NCCNCCNCCNCCNCCN)[C@H]1CC[C@H]2[C@@H]3CC[C@@H]4C[C@H](O)CC[C@]4(C)[C@H]3CC[C@]12C [Compound N, 3α-hydroxy-7,12-dideoxy-5β-cholan-24-oic acid (or lithocholic acid), N-(3,6,9,12-tetraaza-14-aminotetradecyl)amide] | – | – | – | – | – | > 200 µg/mL | 200 µg/mL (≈ 338 µM) | 200 µg/mL (≈ 338 µM) | 50 µg/mL (≈ 84.6 µM) | 200 µg/mL (≈ 338 µM) |
| C[C@H](CCC(=O)O)[C@H]1CC[C@H]2[C@@H]3[C@H](O)C[C@@H]4C[C@H](O)CC[C@]4(C)[C@H]3C[C@H](O)[C@]12C [cholic acid sodium salt, reference compound] | > 200 µg/mL | > 200 µg/mL | > 200 µg/mL | > 200 µg/mL | > 200 µg/mL | – | – | – | – | – |
| C[C@H](CCC(=O)O)[C@H]1CC[C@H]2[C@@H]3CC[C@@H]4C[C@H](O)CC[C@]4(C)[C@H]3C[C@H](O)[C@]12C [deoxycholic acid sodium salt, reference compound] | – | > 200 µg/mL | > 200 µg/mL | > 200 µg/mL | > 200 µg/mL | > 200 µg/mL | – | – | – | – |
